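Following 48 hours of exposure in 96-well plates, responses at five concentrations were used to interpolate endpoints linearly. GI50 = concentration required for 50% inhibition of growth. Definition used: TGI = concentration required for complete inhibition of growth.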
Columns and labels:
Experiment in all cases: NCI anticancer screen, dose series, 48 h
SK-MEL-2 melanoma = test system: SK-MEL-2 melanoma
MCF7 breast = test system: MCF7 breast
UO-31 renal = test system: UO-31 renal
SK-MEL-5 melanoma = test system: SK-MEL-5 melanoma
MDA-MB-231 breast = test system: MDA-MB-231 breast
U251 CNS = test system: U251 CNS
NCI-H226 lung = test system: NCI-H226 lung
ACHN renal = test system: ACHN renal
MALME-3M melanoma = test system: MALME-3M melanoma
SNB-19 CNS = test system: SNB-19 CNS
SF-295 CNS = test system: SF-295 CNS
SK-MEL-28 melanoma = test system: SK-MEL-28 melanoma
OVCAR-5 ovarian = test system: OVCAR-5 ovarian
OVCAR-3 ovarian = test system: OVCAR-3 ovarian
HOP-92 NSCLC = test system: HOP-92 NSCLC
SK-OV-3 ovarian = test system: SK-OV-3 ovarian
NCI-H23 lung = test system: NCI-H23 lung
MDA-MB-435 = test system: MDA-MB-435
HS 578T breast = test system: HS 578T breast
UACC-62 melanoma = test system: UACC-62 melanoma
HL-60(TB) leukemia = test system: HL-60(TB) leukemia
TK-10 renal = test system: TK-10 renal
UACC-257 melanoma = test system: UACC-257 melanoma
KM12 colon = test system: KM12 colon
NCI-H522 lung = test system: NCI-H522 lung
A498 renal = test system: A498 renal
COLO 205 colon = test system: COLO 205 colon
A549 NSCLC = test system: A549 NSCLC
SNB-75 CNS = test system: SNB-75 CNS
K-562 leukemia = test system: K-562 leukemia
CCRF-CEM leukemia = test system: CCRF-CEM leukemia
SW-620 colon = test system: SW-620 colon
IGROV1 ovarian = test system: IGROV1 ovarian
HCT-116 colon = test system: HCT-116 colon
HT29 colon = test system: HT29 colon
M14 melanoma = test system: M14 melanoma
BT-549 breast = test system: BT-549 breast
RXF 393 renal = test system: RXF 393 renal
EKVX NSCLC = test system: EKVX NSCLC
OVCAR-8 ovarian = test system: OVCAR-8 ovarian
786-0 renal = test system: 786-0 renal
SN12C renal = test system: SN12C renal
T-47D breast = test system: T-47D breast
SF-539 CNS = test system: SF-539 CNS
HCT-15 colon = test system: HCT-15 colon
NCI/ADR-RES ovarian = test system: NCI/ADR-RES ovarian
PC-3 prostate = test system: PC-3 prostate
CAKI-1 renal = test system: CAKI-1 renal
MOLT-4 leukemia = test system: MOLT-4 leukemia
HCC-2998 colon = test system: HCC-2998 colon
SF-268 CNS = test system: SF-268 CNS
HOP-62 NSCLC = test system: HOP-62 NSCLC
DU-145 prostate = test system: DU-145 prostate
NCI-H460 lung = test system: NCI-H460 lung

## COC(=O)c1ccc(NC2=C/C(=N/S(=O)(=O)c3ccc(C(=O)O)cc3)c3ccccc3C2=O)cc1
SK-MEL-2 melanoma
  GI50: 2.35 µM
  TGI: 6.51 µM
MCF7 breast
  GI50: 1.89 µM
  TGI: 4.4 µM
UO-31 renal
  GI50: 2.94 µM
  TGI: 15.3 µM
SK-MEL-5 melanoma
  GI50: 3.18 µM
  TGI: 10.1 µM
MDA-MB-231 breast
  GI50: 2.51 µM
  TGI: 8.1 µM
U251 CNS
  GI50: 4.01 µM
  TGI: 28.8 µM
NCI-H226 lung
  GI50: 15.2 µM
  TGI: 34.6 µM
ACHN renal
  GI50: 1.88 µM
  TGI: 4.19 µM
MALME-3M melanoma
  GI50: 1.89 µM
  TGI: 3.52 µM
SNB-19 CNS
  GI50: 16.9 µM
  TGI: 33.2 µM
SF-295 CNS
  GI50: 11.7 µM
  TGI: 26.9 µM
SK-MEL-28 melanoma
  GI50: 2.46 µM
  TGI: 5.89 µM
OVCAR-5 ovarian
  GI50: 14 µM
  TGI: 33.4 µM
OVCAR-3 ovarian
  GI50: 2.17 µM
  TGI: 5.94 µM
HOP-92 NSCLC
  GI50: 3.71 µM
  TGI: 15.6 µM
SK-OV-3 ovarian
  GI50: 21 µM
  TGI: 44.5 µM
NCI-H23 lung
  GI50: 3.18 µM
  TGI: 18.2 µM
MDA-MB-435
  GI50: 1.95 µM
  TGI: 3.67 µM
HS 578T breast
  GI50: 3.36 µM
  TGI: 48 µM
UACC-62 melanoma
  GI50: 2.08 µM
  TGI: 4.55 µM
HL-60(TB) leukemia
  GI50: 2.55 µM
  TGI: 6.52 µM
TK-10 renal
  GI50: 25.2 µM
  TGI: 42.8 µM
UACC-257 melanoma
  GI50: 2.06 µM
  TGI: 4.6 µM
KM12 colon
  GI50: 10.7 µM
  TGI: 25.3 µM
NCI-H522 lung
  GI50: 1.92 µM
  TGI: 4.76 µM
A498 renal
  GI50: 22.9 µM
  TGI: 42.4 µM
COLO 205 colon
  GI50: 17.7 µM
  TGI: 38.1 µM
A549 NSCLC
  GI50: 29.8 µM
  TGI: > 100 µM
SNB-75 CNS
  GI50: 2.1 µM
  TGI: 10.1 µM
K-562 leukemia
  GI50: 3.19 µM
  TGI: > 100 µM
CCRF-CEM leukemia
  GI50: 3.21 µM
  TGI: > 100 µM
SW-620 colon
  GI50: 2.78 µM
  TGI: > 100 µM
IGROV1 ovarian
  GI50: 4.92 µM
  TGI: 20.8 µM
HCT-116 colon
  GI50: 2.81 µM
  TGI: 10.2 µM
HT29 colon
  GI50: 21.3 µM
  TGI: 47.4 µM
M14 melanoma
  GI50: 5.7 µM
  TGI: 23.9 µM
BT-549 breast
  GI50: 15 µM
  TGI: 32.6 µM
RXF 393 renal
  GI50: 8.1 µM
  TGI: 22.4 µM
EKVX NSCLC
  GI50: 2.1 µM
  TGI: 5.83 µM
OVCAR-8 ovarian
  GI50: 3.2 µM
  TGI: 46.2 µM
786-0 renal
  GI50: 10.9 µM
  TGI: 58.4 µM
SN12C renal
  GI50: 2.13 µM
  TGI: 5.15 µM
T-47D breast
  GI50: 3.19 µM
  TGI: 26.8 µM
SF-539 CNS
  GI50: 1.79 µM
  TGI: 3.38 µM
HCT-15 colon
  GI50: 11 µM
  TGI: 35.5 µM
NCI/ADR-RES ovarian
  GI50: 3.06 µM
  TGI: 11.8 µM
PC-3 prostate
  GI50: 3.4 µM
  TGI: 25.3 µM
CAKI-1 renal
  GI50: 10 µM
  TGI: 23.1 µM
MOLT-4 leukemia
  GI50: 1.74 µM
  TGI: 4.47 µM
HCC-2998 colon
  GI50: 10.4 µM
  TGI: 27 µM
SF-268 CNS
  GI50: 6.33 µM
  TGI: 37.5 µM
HOP-62 NSCLC
  GI50: 17.3 µM
  TGI: 38.3 µM
DU-145 prostate
  GI50: 11.7 µM
  TGI: 24.7 µM
NCI-H460 lung
  GI50: 20.6 µM
  TGI: 50.8 µM

— PubChem BioAssay (NCI)
